Test results published in patent US12145944B2, “Imidazopyrimidines as EED inhibitors and the use thereof” (THE REGENTS OF THE UNIVERSITY OF MICHIGAN, priority 2019, dated 2024).

Tested on: KARPAS422 human B cell lymphoma cell
Test: Cell proliferation, KARPAS422, 7 day treatment (WST-8)
Assay type: cell-based
Conditions: Homo sapiens, KARPAS-422, 168 h, anti-proliferative IC50, Karpas 422 cell line, 7 day treatment; read-out: Karpas Cell line
Protocol: “N/A” stands for “not assessed”.
Analysis of Cell Proliferation:
To assess the effect of PRC2 inhibition on cell growth, cells were seeded in 96-well cell culture plates at a density of 2 000-3 000 cells/well in 200 µL of culture medium, and treated with serially diluted compounds for 7 days at 37° C. in an atmosphere of 5% CO2. Cell growth was evaluated by a […] WST-8 assay (Dojindo Molecular Technologies) using a Tecan Infinite M1000 multimode microplate reader (Tecan, Morrisville, NC). The WST-8 reagent was added to the plate, incubated for 1-4 h, and read at 450 nm. The readings were normalized to the DMSO-treated cells, and the IC50 was calculated by nonlinear regression analysis using GraphPad Prism 6 software

| Compound | IC50 [nM] |
| --- | --- |
| c1ccc(-c2cnc(NCc3ccco3)n3cncc23)cc1 [Cpd. No. 126, N-(furan-2-ylmethyl)-8-phenylimidazo[1,5-c]pyrimidin-5-amine] | > 100 |
| CCOC(=O)c1ncn2c(NCc3ccco3)ncc(-c3ccccc3)c12 [Cpd. No. 127, ethyl 5-((furan-2-ylmethyl)amino)-8-phenylimidazo[1,5-c]pyrimidine-1-carboxylate] | > 100 |
| CNC(=O)c1ncn2c(NCc3ccco3)ncc(-c3ccccc3)c12 [Cpd. No. 128, 5-((furan-2-ylmethyl)amino)-N-methyl-8-phenylimidazo[1,5-c]pyrimidine-1-carboxamide] | > 100 |
| Fc1ccc2c(c1CNc1ncc(-c3ccccc3)c3c(C(F)(F)F)ncn13)CCO2 [Cpd. No. 143, N-((5-fluoro-2,3-dihydrobenzofuran-4-yl)methyl)-8-phenyl-1-(trifluoromethyl)imidazo[1,5-c]pyrimidin-5-amine] | > 100 |
| CP(C)(=O)c1ncn2c(NCc3c(F)ccc4c3CCO4)ncc(-c3ccccc3)c12 [Cpd. No. 144, (5-(((5-fluoro-2,3-dihydrobenzofuran-4-yl)methyl)amino)-8-phenylimidazo[1,5-c]pyrimidin-1-yl)dimethylphosphine oxide] | > 10 |
| O=C1OCc2cc(OC(F)(F)F)ccc2-c2cnc(NCc3c(F)ccc4c3CCO4)n3cnc1c23 [compound 31, 12-(((5-fluoro-2,3-dihydrobenzofuran-4-yl)methyl)amino)-7-(trifluoromethoxy)-3H,5H-4-oxa-2,11,12a-triazabenzo[4,5]cycloocta[1,2,3-cd]inden-3-one] | 3.68 |
| O=C1c2ncn3c(NCc4c(F)ccc5c4CCO5)ncc(c23)-c2ccc(C(F)(F)F)nc2CN1CC1CCOCC1 [compound 46, 12-(((5-fluoro-2,3-dihydrobenzofuran-4-yl)methyl)amino)-4-((tetrahydro-2H-pyran-4-yl)methyl)-7-(trifluoromethyl)-4,5-dihydro-3H-2,4,6,11,12a-pentaazabenzo[4,5]cycloocta[1,2,3-cd]inden-3-one] | 0.57 |
| CC1(O)CC(CN2Cc3nc(C(F)(F)F)ccc3-c3cnc(NCc4c(F)ccc5c4CCO5)n4cnc(c34)C2=O)C1 (centres unmarked) [compound 47, 12-(((5-fluoro-2,3-dihydrobenzofuran-4-yl)methyl)amino)-4-((3-hydroxy-3-methylcyclobutyl)methyl)-7-(trifluoromethyl)-4,5-dihydro-3H-2,4,6,11,12a-pentaazabenzo[4,5]cycloocta[1,2,3-cd]inden-3-one] | 0.65 |
| CC(C)(O)CN1Cc2cc(C(F)(F)F)ncc2-c2cnc(NCc3c(F)ccc4c3CCO4)n3cnc(c23)C1=O [compound 48, 12-(((5-fluoro-2,3-dihydrobenzofuran-4-yl)methyl)amino)-4-(2-hydroxy-2-methylpropyl)-7-(trifluoromethyl)-4,5-dihydro-3H-2,4,8,11,12a-pentaazabenzo[4,5]cycloocta[1,2,3-cd]inden-3-one] | 0.74 |
| CC1(O)CC(CN2Cc3cc(C(F)(F)F)ncc3-c3cnc(NCc4c(F)ccc5c4CCO5)n4cnc(c34)C2=O)C1 (centres unmarked) [compound 49, 12-(((5-fluoro-2,3-dihydrobenzofuran-4-yl)methyl)amino)-4-((3-hydroxy-3-methylcyclobutyl)methyl)-7-(trifluoromethyl)-4,5-dihydro-3H-2,4,8,11,12a-pentaazabenzo[4,5]cycloocta[1,2,3-cd]inden-3-one] | 2.78 |
| Cc1ccc2c(n1)CN(CC1CC(C)(O)C1)C(=O)c1ncn3c(NCc4c(F)ccc5c4CCO5)ncc-2c13 (centres unmarked) [compound 50, 12-(((5-fluoro-2,3-dihydrobenzofuran-4-yl)methyl)amino)-4-((3-hydroxy-3-methylcyclobutyl)methyl)-7-methyl-4,5-dihydro-3H-2,4,6,11,12a-pentaazabenzo[4,5]cycloocta[1,2,3-cd]inden-3-one] | 0.71 |
| O=C1c2ncn3c(NCc4c(F)ccc5c4CCO5)ncc(c23)-c2ccc(C(F)(F)F)nc2CN1C1CCOCC1 [compound 51, 12-(((5-fluoro-2,3-dihydrobenzofuran-4-yl)methyl)amino)-4-(tetrahydro-2H-pyran-4-yl)-7-(trifluoromethyl)-4,5-dihydro-3H-2,4,6,11,12a-pentaazabenzo[4,5]cycloocta[1,2,3-cd]inden-3-one] | 2.08 |
| O=C1c2ncn3c(NCc4c(F)ccc5c4CCO5)ncc(c23)-c2ccc(C(F)(F)F)nc2CN1CC1CCOC1 (centres unmarked) [compound 52, 12-(((5-fluoro-2,3-dihydrobenzofuran-4-yl)methyl)amino)-4-((tetrahydrofuran-3-yl)methyl)-7-(trifluoromethyl)-4,5-dihydro-3H-2,4,6,11,12a-pentaazabenzo[4,5]cycloocta[1,2,3-cd]inden-3-one] | 0.54 |
| Cn1ncc2c1CNC(=O)c1ncn3c(NCc4c(F)ccc5c4CCO5)ncc-2c13 [compound 53, 11-(((5-fluoro-2,3-dihydrobenzofuran-4-yl)methyl)amino)-6-methyl-5,6-dihydro-2,4,6,7,10,11a-hexaazacyclopenta[4,5]cycloocta[1,2,3-cd]inden-3(4H)-one] | > 100 |
| Cn1cc2c(n1)COC(=O)c1ncn3c(NCc4c(F)ccc5c4CCO5)ncc-2c13 [compound 54, 11-(((5-fluoro-2,3-dihydrobenzofuran-4-yl)methyl)amino)-7-methyl-5,7-dihydro-3H-4-oxa-2,6,7,10,11a-pentaazacyclopenta[4,5]cycloocta[1,2,3-cd]inden-3-one] | > 100 |
| O=C1c2ncn3c(NCc4c(F)ccc5c4CCO5)ncc(c23)-c2ccc(C(F)(F)F)nc2CN1CC1CC1 [compound 55, 4-(cyclopropylmethyl)-12-(((5-fluoro-2,3-dihydrobenzofuran-4-yl)methyl)amino)-7-(trifluoromethyl)-4,5-dihydro-3H-2,4,6,11,12a-pentaazabenzo[4,5]cycloocta[1,2,3-cd]inden-3-one] | 8.08 |
| Cc1nn(C)c2c1-c1cnc(NCc3c(F)ccc4c3CCO4)n3cnc(c13)C(=O)N(C1CC1)C2 [compound 56, 4-cyclopropyl-11-(((5-fluoro-2,3-dihydrobenzofuran-4-yl)methyl)amino)-6,8-dimethyl-5,6-dihydro-2,4,6,7,10,11a-hexaazacyclopenta[4,5]cycloocta[1,2,3-cd]inden-3(4H)-one] | 21 |
| COCCN1Cc2nc(C(F)(F)F)ccc2-c2cnc(NCc3c(F)ccc4c3CCO4)n3cnc(c23)C1=O [compound 57, 12-(((5-fluoro-2,3-dihydrobenzofuran-4-yl)methyl)amino)-4-(2-methoxyethyl)-7-(trifluoromethyl)-4,5-dihydro-3H-2,4,6,11,12a-pentaazabenzo[4,5]cycloocta[1,2,3-cd]inden-3-one] | 2.63 |
| CC(C)N1Cc2nc(C(F)(F)F)ccc2-c2cnc(NCc3c(F)ccc4c3CCO4)n3cnc(c23)C1=O [compound 59, 12-(((5-fluoro-2,3-dihydrobenzofuran-4-yl)methyl)amino)-4-isopropyl-7-(trifluoromethyl)-4,5-dihydro-3H-2,4,6,11,12a-pentaazabenzo[4,5]cycloocta[1,2,3-cd]inden-3-one] | 39.9 |
| O=C1c2ncn3c(NCc4c(F)ccc5c4CCO5)ncc(c23)-c2ccc(C(F)(F)F)cc2CN1C1CCOCC1 [compound 60, 12-(((5-fluoro-2,3-dihydrobenzofuran-4-yl)methyl)amino)-4-(tetrahydro-2H-pyran-4-yl)-7-(trifluoromethyl)-4,5-dihydro-3H-2,4,11,12a-tetraazabenzo[4,5]cycloocta[1,2,3-cd]inden-3-one] | 1.18 |
